Measured values: ChEMBL document CHEMBL1128967, “Quantification of the extent of attenuation of the rate of turnover chemistry of the TEM-1 -lactamase by the -1R-hydroxyethyl group in substrates” (Bioorg Med Chem Lett, 1996)
Values belong to the molecule of their own block, whether it stands above or below them.

Tests used:
[1] = biological target: Beta-lactamase (Enterobacter cloacae) (UniProt P05364); assay: (§1) Compound was evaluated for the beta-lactamase activity as a substrate.
[2] = as §1
[3] = Compound was evaluated for the beta-lactamase activity as substrate expressed as ratio of kcat/Km.
[4] = Compound was evaluated for the beta-lactamase activity as a substrate expressed as ratio of kcat/Km.
[5] = Compound was evaluated for beta-lactamase activity as a substrate.

Sequence of Beta-lactamase (Enterobacter cloacae) (P05364 21-381 limits assumed): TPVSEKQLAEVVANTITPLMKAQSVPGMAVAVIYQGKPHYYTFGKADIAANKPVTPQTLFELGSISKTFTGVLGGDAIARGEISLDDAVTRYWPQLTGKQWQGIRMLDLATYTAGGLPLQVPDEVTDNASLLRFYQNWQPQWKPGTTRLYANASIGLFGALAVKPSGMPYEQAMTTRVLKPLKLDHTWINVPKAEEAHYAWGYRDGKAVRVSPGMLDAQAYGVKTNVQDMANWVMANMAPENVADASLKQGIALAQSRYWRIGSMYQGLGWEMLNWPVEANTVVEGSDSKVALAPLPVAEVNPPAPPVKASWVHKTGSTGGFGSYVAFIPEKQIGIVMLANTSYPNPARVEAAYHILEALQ

- k2 [1]: 3.7 s⁻¹
- Km [2]: 1.6 µM
- Ks [2]: 13.5 µM
- k3 [2]: 0.5 s⁻¹
- k cat [2]: 0.4 s⁻¹
- k cat/Km [2]: 2.8 M⁻¹ s⁻¹
SMILES: C[C@@H](O)[C@@H]1C(=O)N2[C@@H]1SC(C)(C)[C@@H]2C(=O)O

- k cat/Km [3]: 27 M⁻¹ s⁻¹
SMILES: C[C@@H](O)[C@H]1C(=O)N2[C@@H]1SC(C)(C)[C@@H]2C(=O)O

- k cat/Km [4]: 6.6 M⁻¹ s⁻¹
SMILES: CC1(C)S[C@@H]2CC(=O)N2[C@H]1C(=O)O

- Km [5]: 27 µM
- k cat [2]: 0.04 s⁻¹
- Ratio [3]: 1480 M⁻¹ s⁻¹
SMILES: C[C@@H](O)[C@H]1C(=O)N2C(C(=O)O)=C(SCCNC=N)C[C@H]12
